# Where two headings read alike, the source gives them in different places.
# How the values were obtained:
# MKP5-CD [1] = molecular target: T1, MKP5-CD (Homo sapiens, UniProt Q9Y6W6); assay: Phosphate sensor kinetic assay with full-length p38α MAPK as substrate; format: biochemical; conditions: 25 μM inhibitor, varying p38α MAPK
# T1 construct: The catalytic domain of MKP5 (MKP5-CD, residues 320-467) was inserted into a pET-28a vector; His-tag (N, cleaved yes); made in house; host or cells: E. coli BL21 (DE3)
# T1 sequence (Q9Y6W6 320-467): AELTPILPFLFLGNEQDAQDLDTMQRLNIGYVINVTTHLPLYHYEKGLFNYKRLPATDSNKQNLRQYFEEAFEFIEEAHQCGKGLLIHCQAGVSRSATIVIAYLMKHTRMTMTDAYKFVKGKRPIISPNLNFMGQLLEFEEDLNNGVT
# Procedure: The phosphate sensor protein (PS) was purchased from Life Technologies (Lot #1962036B). To characterize the activity of MKP5-CD against full length p38α MAPK, 5 nM MKP5-CD and 0.5 μM PS were combined in 50 mM Tris (pH 7.6), 25 mM NaCl, 0.01% Triton X100 and […] and added to a Corning #4511 384-well plate. Using an Echo 550 liquid handler (LabCyte Inc.), either 25 μM compound 1 or neat DMSO were added to a final DMSO concentration of 0.2%. Reactions were initiated with up to 300 μM p38α MAPK, a concentration approximately 5 times the KM of MKP5-CD39, and allowed to proceed at ambient temperature for 20 minutes. Fluorescence was continuously monitored by Tecan Infinite M1000 with excitation at 425 f 5 nm and emission at 454 f 5 nm. Raw fluorescence was converted to phosphate release using a standard curve generated the same day as kinetic experiments. The initial velocity was determined for each well based on reaction progress in the first 120 seconds. These velocities were then plotted against substrate concentration and fit to a mixed-mechanism inhibition curve.
# ERK1/2 [2] = assay: ERK1/2 phosphorylation in wild type MEFs; format: cell-based, mouse
# Procedure: (§1) C2C12 myoblasts were cultured as described previously. Substantively, wild type (mkp-5^+/+) and MKP5-deficient (mkp-5^−/−) mouse embryo fibroblasts (MEFs) were generated from female mice at days 13-14 of pregnancy and established by spontaneous immortalization. C2C12 myoblasts and MEFs were treated with 1 at the indicated concentrations for 24 h. For immunoblotting, C2C12 myoblasts or MKP5 wild type and MKP5-deficient fibroblasts were lysed on ice in lysis buffer and clarified by centrifugation at 20,800×g at 4° C. for 20 min. Protein concentration was determined using BCA reagent according to the manufacturer's instructions (Pierce). Recombinant human TGF-β1 (240-B-002) was purchased from R&D Systems. For phospho-MAPK and MAPK immunoblotting, lysates were resolved by SDS-PAGE and transferred onto nitrocellulose membranes (Bio-Rad). Membranes were blocked with 5% nonfat dry milk or 5% BSA in Tris-buffered saline/Tween 20 (TBS-T) for 1 h at room temperature or overnight at 4° C. Primary antibodies were diluted in 5% BSA or 5% nonfat dry milk in TBS-T. MAPK and Smad2 activation were calculated as the ratio of the indicated phosphorylated MAPK or phosphorylated Smad2 to total MAPK or Smad2, respectively by direct fluorescence quantitation using the Odyssey CLx Imaging System. Images were processed with the LI-COR Image Studio Software.
# PTP-1B = molecular target: T2, PTP-1B (Homo sapiens, UniProt P18031); assay: PTP1B counterscreen (Millipore kit, malachite green detection); format: biochemical; conditions: FIG. 15; read-out: IC50 against PTP-1B
# T2 construct: purchased Millipore 539736
# T2 sequence (P18031 1-435): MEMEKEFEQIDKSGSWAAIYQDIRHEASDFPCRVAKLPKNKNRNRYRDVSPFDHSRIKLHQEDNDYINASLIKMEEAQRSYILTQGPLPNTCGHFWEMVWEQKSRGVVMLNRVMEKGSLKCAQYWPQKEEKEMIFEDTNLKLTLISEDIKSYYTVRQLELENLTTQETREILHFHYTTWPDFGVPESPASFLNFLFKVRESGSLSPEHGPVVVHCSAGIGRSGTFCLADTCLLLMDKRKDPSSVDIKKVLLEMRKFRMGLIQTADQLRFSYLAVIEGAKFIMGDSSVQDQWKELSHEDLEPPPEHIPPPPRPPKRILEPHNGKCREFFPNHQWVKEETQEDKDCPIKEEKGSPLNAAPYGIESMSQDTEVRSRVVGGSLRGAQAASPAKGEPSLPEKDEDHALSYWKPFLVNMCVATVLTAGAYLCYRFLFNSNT
# Procedure: (§2) To test for 1 activity on STEP-46, a pNPP assay was employed with 1.5 μM STEP46 and 10 mM pNPP. After 30 min at room temperature, absorbance at 405 nm was measured. For comparison, MKP5-CD was tested in the pNPP assay under identical conditions. For PTP1B, the Millipore PTP1B assay kit (#539736) was performed as recommended by the manufacturer except that malachite green was used for detection.
# ERK1/2 [3] = assay: ERK1/2 activation in C2C12 myoblasts (pMAPK/MAPK immunoblot); format: cell-based, mouse; conditions: even at the highest concentration
# Procedure: as §1
# [4] = molecular target: T3, catalytic domain of MKP1 (MKP1-CD) (Homo sapiens, UniProt P28562); assay: Malachite green assay of MKP1-CD; format: biochemical
# T3 construct: MKP1-CD (human aa 172-314); purchased ARVYS Proteins (Trumbull, CT)
# T3 sequence (P28562 172-314): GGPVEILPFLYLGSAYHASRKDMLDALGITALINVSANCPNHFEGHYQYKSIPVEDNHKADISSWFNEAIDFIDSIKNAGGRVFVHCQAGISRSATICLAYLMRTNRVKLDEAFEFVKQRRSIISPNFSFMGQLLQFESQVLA
# Procedure: Compound 1 selected from the screen was tested for activity against MKP1 and MKP5 using the malachite green assay. For MKP5-CD, the same conditions for the screening assay were used. For MKP1-CD, the following conditions were used: 1 μM MKP1-CD, 50 μM pTpY, 120 min at 30° C.
# p38α MAPK [5] = assay: p38α MAPK phosphorylation in wild type MEFs; format: cell-based, mouse
# Procedure: as §1
# p38α MAPK [6] = assay: p38α MAPK activation in C2C12 myoblasts (pMAPK/MAPK immunoblot); format: cell-based, mouse
# Procedure: as §1
# STEP-46 = molecular target: T4, STEP-46 (Homo sapiens, UniProt P54829); assay: STEP-46 pNPP counterscreen; format: biochemical; conditions: pNPP assay, FIG. 15; read-out: IC50 against STEP-46
# T4 sequence (P54829 1-565): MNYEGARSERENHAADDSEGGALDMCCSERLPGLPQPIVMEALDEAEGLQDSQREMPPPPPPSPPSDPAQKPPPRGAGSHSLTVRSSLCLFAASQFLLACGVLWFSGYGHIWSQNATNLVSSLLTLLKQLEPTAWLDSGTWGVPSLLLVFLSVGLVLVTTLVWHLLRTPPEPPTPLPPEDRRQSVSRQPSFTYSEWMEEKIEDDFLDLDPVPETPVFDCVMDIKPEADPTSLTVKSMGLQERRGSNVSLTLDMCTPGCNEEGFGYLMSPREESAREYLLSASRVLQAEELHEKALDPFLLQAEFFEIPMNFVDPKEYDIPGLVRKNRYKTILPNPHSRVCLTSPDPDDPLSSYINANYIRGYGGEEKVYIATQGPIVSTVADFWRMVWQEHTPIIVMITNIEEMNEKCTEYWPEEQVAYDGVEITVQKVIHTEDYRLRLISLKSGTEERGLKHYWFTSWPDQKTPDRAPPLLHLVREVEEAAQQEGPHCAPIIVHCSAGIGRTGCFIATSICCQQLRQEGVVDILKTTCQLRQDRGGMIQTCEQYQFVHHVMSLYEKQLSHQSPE
# Procedure: as §2
# Smad2 = assay: TGF-β1-mediated Smad2 phosphorylation in wild type MEFs; format: cell-based, mouse; conditions: TGF-β1 1 ng/ml 10 minutes
# Procedure: as §1
# JNK [7] = assay: JNK phosphorylation in wild type MEFs; format: cell-based, mouse
# Procedure: as §1
# [8] = molecular target: T5, MKP5-CD (catalytic domain of MKP5, residues 320-467) (Homo sapiens, UniProt Q9Y6W6); assay: Malachite green phosphatase assay of MKP5-CD with p38α MAPK phosphopeptide substrate; format: biochemical
# T5 construct: The catalytic domain of MKP5 (MKP5-CD, residues 320-467) was inserted into a pET-28a vector; His-tag (N, cleaved yes); made in house; host or cells: E. coli BL21 (DE3)
# T5 sequence (Q9Y6W6 320-467): T1 sequence (Q9Y6W6 320-467)
# Procedure: A small molecule collection was screened for activity against MKP5-CD using a malachite green assay in 384-well format. MKP5-CD and p38α MAPK phosphopeptide (DDE(Nle)(pT)G(pY)VATR) substrate were diluted into PTP buffer (50 mM Tris pH 7.2, 1 mM EDTA, 0.1% β-mercaptoethanol, 0.01% Triton X-100). The screen was performed in two distinct phases. An initial screen against a subset of the compound library was carried out in the following conditions: 1.5 μM MKP5-CD, 25 μM phosphopeptide, 30 min at 37° C. A second follow-up screen was performed with the following modifications: 0.5 μM MKP5-CD, 50 μM phosphopeptide, 15 min at 30° C. Test compounds (20 nL) were dispensed with either an Aquarius (Tecan) pintool system (initial phase) or Echo 550 (Labcyte) acoustic dispenser (follow-up phase). In both phases, the test compound concentration was 20 μM in the 10 μL reaction and the final DMSO was 0.2%. […] The plate was incubated for 10-15 min at room temperature to allow color development and absorbance at 620 nm measured. The signal-to-background (S/B) ratio was calculated from the mean absorbance of vehicle-treated wells with and without enzyme (negative and positive controls; n=32 per condition). Percent inhibition of test wells was calculated from the mean positive and negative controls on each plate. […]
# MKP5-CD [9] = molecular target: T1, MKP5-CD; assay: Microscale thermophoresis binding assay; conditions: fluorescently-labeled MKP5-CD, FIG. 1D; read-out: dissociation constant (Kd)
# Procedure: (§3) Binding interactions between MKP5-CD and 1 were carried out using microscale thermophoresis (MST) on a Monolith NT.115Pico instrument. MKP5-CD was labeled for MST using NanoTemper Monolith NTTM Protein Labeling Kit RED-NHS 2nd Generation (#MO-L011). Briefly, MKP5-CD was transferred into the provided labeling buffer and diluted to 20 μM. Dye was added in a 2-fold molar excess and allowed to incubate 30 minutes at room temperature. Excess dye was removed using the provided column equilibrated in 50 mM Tris pH 8.0, 150 mM NaCl, 0.05% Tween-20. A fixed amount of labeled wild-type or mutant MKP5-CD was combined with up to 200 μM 1 and loaded into premium capillaries. MST experiments were carried out at 40% IR power for 20 seconds. Normalized fluorescence (Fnorm) values at a given time were plotted against inhibitor concentration, and the Kd was determined by fitting with a hyperbolic binding curve. Experiments were performed in triplicate and data are presented as means±SD.
# [10] = test system: MKP5-CD Y435A, Y435S, Y435W mutants; assay: Binding and inhibition of Tyr435 mutant MKP5-CD constructs; format: biochemical; conditions: FIG. 3C
# Procedure: The catalytic domain of MKP5 (MKP5-CD, residues 320-467) was inserted into a pET-28a vector for expression. Mutant constructs were generated according to the QuikChange II (Agilent) site directed mutagenesis protocol. Constructs were transformed into BL21 (DE3) cells and grown in LB containing 100 μg/mL kanamycin to an OD of 0.8. Protein expression was induced with 1 mM IPTG, and cells were harvested after overnight incubation at 22° C.
# as §3, with “Experiments were performed in triplicate and data are presented as means±SD.” left out
# JNK [11] = assay: JNK activation in C2C12 myoblasts (pMAPK/MAPK immunoblot); format: cell-based, mouse
# Procedure: as §1
compound,measurement,setting,value
"CSc1scc2c1-c1nc(SCC(=O)C(C)(C)C)ncc1CC2 [Compound 1, 3,3-Dimethyl-1-((9-(methylthio)-5,6-dihydrothieno[3,4-h]quinazolin-2-yl)thio)butan-2-one]",mode of inhibition,MKP5-CD [1],mixed competitive mode of inhibition
same,α of mixed-mechanism inhibition fit,MKP5-CD [1],≈ 4.6
same,phosphorylation of ERK1/2,ERK1/2 [2],not ERK1/2
same,IC50,PTP-1B,> 100 µM
same,activation status of ERK1/2,ERK1/2 [3],did not alter
same,IC50,"[4]; FIG. 1F, read-out: IC50 towards the catalytic domain of MKP1",> 60 µM
same,reduction in potency for MKP1 relative to MKP5,[4]; MKP1 versus MKP5,16 fold
same,phosphorylation of p38α MAPK,p38α MAPK [5],dose-dependent increase
same,activation of p38α MAPK,p38α MAPK [6]; 24 h,increased in a dose-dependent manner
same,induction of p38α MAPK activity,p38α MAPK [6]; highest concentration,2.0 fold
same,IC50,STEP-46,> 200 µM
same,TGF-β1-mediated Smad2 phosphorylation,Smad2,inhibited
same,phosphorylation of JNK,JNK [7],dose-dependent increase
same,IC50,[8],~4.2 µM
same,IC50,"[8]; resynthesized compound, p38α MAPK phosphopeptide substrate, FIG. 1E, read-out: IC50 against MKP5-CD",3.9 ± 0.6 µM
same,Kd,MKP5-CD [9],1 ± 0.2 µM
same,binding to and inhibition of Tyr435 mutants,[10],only capable of binding to and inhibiting the activity of the Y435W mutant
same,JNK activation,JNK [11]; 24 h,increased upon treatment of C2C12 myoblasts but with less effectiveness as compared with p38 MAPK
same,induction of JNK activity,JNK [11]; highest concentration,1.4 fold

# Reference: patent publication US12570670B2, “Compounds, compositions, and methods for treating fibrosis” (YALE UNIVERSITY, priority 2019, dated 2026)
